Source: patent US20150209294A1, “PHARMACEUTICAL COMPOSITION AND PROCESS” (Hoffmann-La Roche Inc., priority 2006, published 2015)

Legend:
[1] = pH-dependent chemical stability (hydrolysis of ester linkage); assay type: physicochemical; conditions: at pH>6
permeability of R 411 = assay type: in vitro ADME; conditions: limited permeability
[2] = oral bioavailability in dogs; conditions: dog, in vivo
[3] = oral bioavailability in rats; conditions: rat, in vivo
[4] = oral bioavailability in monkeys; conditions: monkey, in vivo

SMILES: CCN(CC)CCOC(=O)[C@H](Cc1ccc(NC(=O)c2c(Cl)cccc2Cl)cc1)NC(=O)c1c(C)cccc1Cl.Cl [R 411, N-(2-chloro-6-methylbenzoyl)-4-[(2,6-dichlorobenzoyl)amino]-L-phenylalanine-2-(diethylamino)ethyl ester hydrochloride]
- stability to hydrolysis [1]: prone to alkaline hydrolysis
- permeability (permeability of R 411): 58×10^−6 cm^2/sec
- bioavailability [2]: 20%
- bioavailability [3]: 20%
- bioavailability [4]: 6%
